Measurements from ChEMBL document CHEMBL4376834, “Discovery of 4H-Chromen-4-one Derivatives as a New Class of Selective Rho Kinase (ROCK) Inhibitors, which Showed Potent Activity in ex Vivo Diabetic Retinopathy Models” (J Med Chem, 2019).

Columns and labels:
[1] = target: G protein-coupled receptor kinase 6 (Homo sapiens, UniProt P43250); test: Inhibition of recombinant full length human GRK6 using casein as substrate after 40 mins in presence of [gamma-33ATP] by radiometric scintillation counting analysis
[2] = target: Tyrosine-protein kinase Yes (Homo sapiens, UniProt P07947); test: Inhibition of recombinant full-length human Yes using poly(Glu, Tyr) 4:1 as substrate incubated for 40 mins in presence of [gamma33P]ATP by radiometric scintillation counting analysis
[3] = target: Protein-tyrosine kinase 2-beta (Homo sapiens, UniProt Q14289); test: Inhibition of recombinant human full length PYK2 using poly(Glu, Tyr) 4:1 as substrate incubated for 40 mins in presence of [gamma33P]ATP by radiometric scintillation counting analysis
[4] = target: Inhibitor of nuclear factor kappa-B kinase subunit alpha (Homo sapiens, UniProt O15111); test: Inhibition of recombinant full length human IKKalpha using peptide substrate after 40 mins by [gamma-33ATP]by radiometric scintillation counting analysis
[5] = target: Cyclin-dependent kinase 5/CDK5 activator 1 (Homo sapiens, UniProt Q00535); test: Inhibition of recombinant full length human CDK5/p35 using histone H1 as substrate incubated for 40 mins in presence of [gamma-33ATP] by radiometric scintillation counting analysis; type: protein-complex assay
[6] = target: Protein kinase C alpha type (Homo sapiens, UniProt P17252); test: Inhibition of recombinant human full length PKCalpha using histone as substrate incubated for 40 mins in presence of [gamma33P]ATP by radiometric scintillation counting analysis
[7] = target: Serine/threonine-protein kinase D3 (Homo sapiens, UniProt O94806); test: Inhibition of recombinant full-length human PKD3 using KKLRRTLSVA as substrate incubated for 40 mins in presence of [gamma33P]ATP by radiometric scintillation counting analysis
[8] = target: Tyrosine-protein kinase SYK (Homo sapiens, UniProt P43405); test: Inhibition of recombinant human full length SYK using poly(Glu, Tyr) 4:1 as substrate incubated for 40 mins in presence of [gamma33P]ATP by radiometric scintillation counting analysis
[9] = target: Tyrosine-protein kinase ABL1 (Homo sapiens, UniProt P00519, H396P); test: Inhibition of human recombinant ABL1 H396P mutant (27 to end residues) using EAIYAAPFAKKK as substrate incubated for 40 mins in presence of [gamma-33P]ATP by radiometry scintillation counting analysis assay
[10] = target: STE20-like serine/threonine-protein kinase (Homo sapiens, UniProt Q9H2G2); test: Inhibition of recombinant human SLK (1 to 373 residues) using RLGRDKYKTLRQI as substrate incubated for 40 mins in presence of [gamma33P]ATP by radiometric scintillation counting analysis
[11] = target: Tyrosine-protein kinase ITK/TSK (Homo sapiens, UniProt Q08881); test: Inhibition of human recombinant Itk (352 to 617 residues) using myelin basic protein as substrate after 40 mins by [gamma-33ATP] by radiometric scintillation counting analysis
[12] = target: Tyrosine-protein kinase ABL2 (Homo sapiens, UniProt P42684); test: Inhibition of human recombinant ARG (48 to end residues) using EAIYAAPFAKKK as substrate incubated for 40 mins in presence of [gamma-33ATP] by radiometric scintillation counting analysis
[13] = target: Macrophage colony-stimulating factor 1 receptor (Homo sapiens, UniProt P07333, Y969C); test: Inhibition of recombinant human FMS Y969C mutant (538 to end residues) using EEEEYEEEEEEYY as substrate after 40 mins in presence of [gamma-33ATP] by radiometric scintillation counting analysis
[14] = target: Interferon-induced, double-stranded RNA-activated protein kinase (Homo sapiens, UniProt P19525); test: Inhibition of recombinant human PKR (252 to end residues) using RSRSRSRSRSRSRS as substrate incubated for 40 mins in presence of [gamma33P]ATP by radiometric scintillation counting analysis
CDK4/Cyclin D3 = CDK4/Cyclin D3 (Homo sapiens, UniProt P11802); test: Inhibition of recombinant full length human CDK4/CyclinD3 using Rb fragment as substrate incubated for 40 mins in presence of [gamma-33ATP] by radiometric scintillation counting analysis; type: protein-complex assay
[15] = target: Calcium/calmodulin-dependent protein kinase kinase 2 (Homo sapiens, UniProt Q96RR4, T85S); test: Inhibition of recombinant full length human CaMKK2 T85S mutant using calmodulin as substrate incubated for 40 mins in presence of [gamma-33ATP] by radiometric scintillation counting analysis
[16] = target: Proto-oncogene tyrosine-protein kinase receptor Ret (Homo sapiens, UniProt P07949, V804M); test: Inhibition of recombinant human Ret V804M mutant (658 to end residues) using KKKVSRSGLYRSP as substrate incubated for 40 mins in presence of [gamma33P]ATP by radiometric scintillation counting analysis
[17] = target: Serine/threonine-protein kinase Chk1 (Homo sapiens, UniProt O14757); test: Inhibition of recombinant full length human CHK1 using KKKVSRSGLYRSP as substrate incubated for 40 mins in presence of [gamma-33ATP] by radiometric scintillation counting analysis
[18] = target: Phosphorylase b kinase gamma catalytic chain, liver/testis isoform (Homo sapiens, UniProt P15735, F290L); test: Inhibition of recombinant human PhKgamma2 F290L (1 to 301 residues) usingKKLNRTLSFAEPG as substrate incubated for 40 mins in presence of [gamma33P]ATP by radiometric scintillation counting analysis
[19] = target: Mitogen-activated protein kinase 11 (Homo sapiens, UniProt Q15759); test: Inhibition of recombinant human full length SAPK2b using myelin basic protein as substrate incubated for 40 mins in presence of [gamma33P]ATP by radiometric scintillation counting analysis
[20] = target: Mitogen-activated protein kinase kinase kinase 2 (Homo sapiens, UniProt Q9Y2U5); test: Inhibition of recombinant full length human MEKK2 using myelin basic protein as substrate incubated for 40 mins in presence of [gamma-33ATP by radiometric scintillation counting analysis
[21] = target: Mitogen-activated protein kinase kinase kinase kinase 5 (Homo sapiens, UniProt Q9Y4K4); test: Inhibition of recombinant full length human MAP4K5 using myelin basic protein as substrate incubated for 40 mins in presence of [gamma-33ATP by radiometric scintillation counting analysis
[22] = target: Mitogen-activated protein kinase 1 (Homo sapiens, UniProt P28482); test: Inhibition of recombinant full length human MAPK1 using myelin basic protein as substrate incubated for 40 mins in presence of [gamma-33ATP by radiometric scintillation counting analysis
[23] = target: Fibroblast growth factor receptor 2 (Homo sapiens, UniProt P21802); test: Inhibition of recombinant human FGFR2 (456 to 770 residues) using poly(Glu, Tyr) 4:1 as substrate after 40 mins in presence of [gamma-33ATP] by radiometric scintillation counting analysis
Ephrin type-B receptor 3 = Ephrin type-B receptor 3 (Homo sapiens, UniProt P54753); test: Inhibition of recombinant human EphB3 (599 to 920 residues) using poly(Glu, Tyr) 4:1 as substrate after 40 mins in presence of [gamma-33ATP] by radiometric scintillation counting analysis

Measured: IC50

Sequence of Proto-oncogene tyrosine-protein kinase receptor Ret (P07949 29-1114 V804M limits assumed): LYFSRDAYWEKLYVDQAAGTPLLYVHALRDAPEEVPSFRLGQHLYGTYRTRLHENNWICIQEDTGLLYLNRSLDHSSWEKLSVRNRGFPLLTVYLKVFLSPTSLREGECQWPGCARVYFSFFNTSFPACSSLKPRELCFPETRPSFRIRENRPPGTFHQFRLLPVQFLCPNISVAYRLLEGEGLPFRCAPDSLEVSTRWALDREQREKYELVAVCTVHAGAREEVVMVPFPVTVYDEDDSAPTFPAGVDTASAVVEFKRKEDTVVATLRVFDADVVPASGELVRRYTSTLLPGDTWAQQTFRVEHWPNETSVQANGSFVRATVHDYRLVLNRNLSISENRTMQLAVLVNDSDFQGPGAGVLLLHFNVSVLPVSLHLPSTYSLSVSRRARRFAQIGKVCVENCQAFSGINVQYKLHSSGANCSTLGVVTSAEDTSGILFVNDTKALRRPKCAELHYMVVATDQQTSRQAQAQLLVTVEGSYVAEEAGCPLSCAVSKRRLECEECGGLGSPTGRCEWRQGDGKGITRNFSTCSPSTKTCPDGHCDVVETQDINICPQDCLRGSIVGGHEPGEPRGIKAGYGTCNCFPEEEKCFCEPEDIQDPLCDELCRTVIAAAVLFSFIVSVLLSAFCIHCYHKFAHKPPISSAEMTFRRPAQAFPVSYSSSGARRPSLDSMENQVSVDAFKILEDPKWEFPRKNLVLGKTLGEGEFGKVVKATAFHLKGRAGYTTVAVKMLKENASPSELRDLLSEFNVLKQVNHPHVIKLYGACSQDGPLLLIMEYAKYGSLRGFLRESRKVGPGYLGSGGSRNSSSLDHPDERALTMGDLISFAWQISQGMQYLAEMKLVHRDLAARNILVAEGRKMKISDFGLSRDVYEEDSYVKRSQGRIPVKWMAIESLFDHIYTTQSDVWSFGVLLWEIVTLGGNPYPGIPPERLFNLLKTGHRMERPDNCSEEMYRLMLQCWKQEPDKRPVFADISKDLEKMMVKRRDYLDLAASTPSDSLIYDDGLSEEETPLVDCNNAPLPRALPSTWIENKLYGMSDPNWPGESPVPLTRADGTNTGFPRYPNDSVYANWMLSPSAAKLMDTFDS
Sequence of Phosphorylase b kinase gamma catalytic chain, liver/testis isoform (P15735 whole entry F290L, the tested form may be a part, canonical isoform): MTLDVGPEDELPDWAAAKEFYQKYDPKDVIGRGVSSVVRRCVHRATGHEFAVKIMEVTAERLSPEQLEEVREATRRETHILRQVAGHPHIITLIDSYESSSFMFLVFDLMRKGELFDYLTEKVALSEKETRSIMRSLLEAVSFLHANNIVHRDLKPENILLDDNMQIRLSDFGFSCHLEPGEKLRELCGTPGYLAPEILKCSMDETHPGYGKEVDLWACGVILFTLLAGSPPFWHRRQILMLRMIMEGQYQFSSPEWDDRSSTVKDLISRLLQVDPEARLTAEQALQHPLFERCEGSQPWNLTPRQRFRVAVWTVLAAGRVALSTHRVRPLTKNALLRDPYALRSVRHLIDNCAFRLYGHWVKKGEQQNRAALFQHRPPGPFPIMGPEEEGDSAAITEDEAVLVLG
Sequence of STE20-like serine/threonine-protein kinase (Q9H2G2 whole entry, the tested form may be a part): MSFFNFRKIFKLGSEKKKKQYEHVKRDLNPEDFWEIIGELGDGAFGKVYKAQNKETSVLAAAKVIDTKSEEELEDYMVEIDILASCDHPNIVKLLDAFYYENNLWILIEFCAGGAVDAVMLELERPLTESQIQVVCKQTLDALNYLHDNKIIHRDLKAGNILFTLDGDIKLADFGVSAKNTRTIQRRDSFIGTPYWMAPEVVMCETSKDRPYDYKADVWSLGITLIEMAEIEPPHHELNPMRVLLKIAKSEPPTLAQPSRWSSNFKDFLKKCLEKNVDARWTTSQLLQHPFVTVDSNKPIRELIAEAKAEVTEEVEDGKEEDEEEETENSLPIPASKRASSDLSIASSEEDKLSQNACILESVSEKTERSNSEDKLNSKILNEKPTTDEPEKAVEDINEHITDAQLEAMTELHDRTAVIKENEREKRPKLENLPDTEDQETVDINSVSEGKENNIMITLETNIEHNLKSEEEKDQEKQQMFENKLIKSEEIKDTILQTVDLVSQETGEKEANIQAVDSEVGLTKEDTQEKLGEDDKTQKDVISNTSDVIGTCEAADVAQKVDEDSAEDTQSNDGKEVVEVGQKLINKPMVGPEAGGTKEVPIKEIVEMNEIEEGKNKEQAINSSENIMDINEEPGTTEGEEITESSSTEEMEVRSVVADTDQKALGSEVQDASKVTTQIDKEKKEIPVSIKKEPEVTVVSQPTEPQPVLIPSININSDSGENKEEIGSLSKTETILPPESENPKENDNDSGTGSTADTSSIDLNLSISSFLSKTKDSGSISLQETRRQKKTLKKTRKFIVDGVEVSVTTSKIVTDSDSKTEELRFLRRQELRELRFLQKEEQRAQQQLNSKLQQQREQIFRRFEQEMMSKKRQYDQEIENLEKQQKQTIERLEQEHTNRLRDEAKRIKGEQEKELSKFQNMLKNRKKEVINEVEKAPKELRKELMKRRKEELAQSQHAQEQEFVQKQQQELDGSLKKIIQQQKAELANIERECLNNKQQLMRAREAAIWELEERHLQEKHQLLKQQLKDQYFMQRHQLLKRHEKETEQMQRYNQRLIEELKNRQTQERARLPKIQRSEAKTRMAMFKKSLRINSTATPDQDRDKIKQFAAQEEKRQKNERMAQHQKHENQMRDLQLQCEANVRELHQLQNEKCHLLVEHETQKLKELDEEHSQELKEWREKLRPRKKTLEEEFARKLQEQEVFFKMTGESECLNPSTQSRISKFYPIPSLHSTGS
Sequence of Tyrosine-protein kinase Yes (P07947 whole entry): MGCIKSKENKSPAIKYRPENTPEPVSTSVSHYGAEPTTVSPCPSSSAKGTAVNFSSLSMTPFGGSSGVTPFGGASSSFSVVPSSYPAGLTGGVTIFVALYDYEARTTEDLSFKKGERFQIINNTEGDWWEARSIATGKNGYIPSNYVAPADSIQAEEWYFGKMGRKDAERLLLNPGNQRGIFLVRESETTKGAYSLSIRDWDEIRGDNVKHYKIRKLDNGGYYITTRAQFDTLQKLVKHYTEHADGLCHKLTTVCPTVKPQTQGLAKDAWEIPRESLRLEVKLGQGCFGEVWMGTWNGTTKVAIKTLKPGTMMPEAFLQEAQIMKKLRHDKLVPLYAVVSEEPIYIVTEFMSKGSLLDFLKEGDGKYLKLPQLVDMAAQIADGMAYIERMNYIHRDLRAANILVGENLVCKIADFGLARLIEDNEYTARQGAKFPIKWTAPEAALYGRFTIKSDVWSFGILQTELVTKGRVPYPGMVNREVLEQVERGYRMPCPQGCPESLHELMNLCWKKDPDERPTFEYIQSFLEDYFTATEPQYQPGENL
Sequence of Inhibitor of nuclear factor kappa-B kinase subunit alpha (O15111 whole entry): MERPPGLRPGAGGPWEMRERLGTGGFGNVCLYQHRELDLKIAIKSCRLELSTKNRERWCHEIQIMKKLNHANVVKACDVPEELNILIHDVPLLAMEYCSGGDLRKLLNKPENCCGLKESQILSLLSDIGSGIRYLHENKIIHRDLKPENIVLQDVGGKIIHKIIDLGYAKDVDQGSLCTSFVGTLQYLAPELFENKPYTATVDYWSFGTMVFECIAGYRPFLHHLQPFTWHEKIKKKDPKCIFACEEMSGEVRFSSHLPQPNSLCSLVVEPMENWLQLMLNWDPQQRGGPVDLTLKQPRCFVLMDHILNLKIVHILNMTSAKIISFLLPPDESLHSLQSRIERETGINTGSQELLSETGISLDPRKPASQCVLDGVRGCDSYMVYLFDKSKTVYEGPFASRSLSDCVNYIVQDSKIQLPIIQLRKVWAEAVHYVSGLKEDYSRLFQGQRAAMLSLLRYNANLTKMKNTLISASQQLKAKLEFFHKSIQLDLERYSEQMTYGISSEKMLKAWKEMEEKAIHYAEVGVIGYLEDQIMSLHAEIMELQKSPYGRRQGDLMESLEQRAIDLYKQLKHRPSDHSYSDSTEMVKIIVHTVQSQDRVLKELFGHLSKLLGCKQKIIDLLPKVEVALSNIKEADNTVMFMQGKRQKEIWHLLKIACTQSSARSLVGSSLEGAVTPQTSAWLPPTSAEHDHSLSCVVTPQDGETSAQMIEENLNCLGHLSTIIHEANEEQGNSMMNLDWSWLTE
Sequence of Mitogen-activated protein kinase kinase kinase 2 (Q9Y2U5 whole entry): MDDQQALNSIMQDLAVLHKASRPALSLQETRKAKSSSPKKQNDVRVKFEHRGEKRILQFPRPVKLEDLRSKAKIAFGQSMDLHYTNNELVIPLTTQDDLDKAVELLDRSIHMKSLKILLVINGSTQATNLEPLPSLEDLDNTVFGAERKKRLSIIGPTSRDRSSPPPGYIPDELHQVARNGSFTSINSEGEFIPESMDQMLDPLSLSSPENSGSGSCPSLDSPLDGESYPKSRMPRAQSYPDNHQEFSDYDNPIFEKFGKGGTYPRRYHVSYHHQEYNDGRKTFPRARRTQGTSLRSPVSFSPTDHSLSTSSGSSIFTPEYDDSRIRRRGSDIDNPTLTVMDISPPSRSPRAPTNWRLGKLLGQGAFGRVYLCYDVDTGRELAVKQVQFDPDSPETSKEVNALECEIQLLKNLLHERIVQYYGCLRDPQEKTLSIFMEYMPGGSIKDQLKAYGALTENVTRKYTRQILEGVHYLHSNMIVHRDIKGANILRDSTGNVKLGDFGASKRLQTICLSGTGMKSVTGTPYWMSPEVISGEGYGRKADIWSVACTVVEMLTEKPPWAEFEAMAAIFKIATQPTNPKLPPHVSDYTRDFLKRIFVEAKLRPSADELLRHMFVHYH
Sequence of Mitogen-activated protein kinase 1 (P28482 whole entry, the tested form may be a part): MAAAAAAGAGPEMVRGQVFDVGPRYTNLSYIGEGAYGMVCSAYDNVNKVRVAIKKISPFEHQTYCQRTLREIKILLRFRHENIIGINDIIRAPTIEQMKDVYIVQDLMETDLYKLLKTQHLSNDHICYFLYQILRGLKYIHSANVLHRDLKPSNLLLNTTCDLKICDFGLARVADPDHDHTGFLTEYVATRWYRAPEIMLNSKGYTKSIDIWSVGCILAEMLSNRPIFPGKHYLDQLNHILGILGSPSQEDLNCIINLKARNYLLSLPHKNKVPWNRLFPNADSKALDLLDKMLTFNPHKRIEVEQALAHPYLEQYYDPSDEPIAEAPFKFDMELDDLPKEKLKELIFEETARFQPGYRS

CN(C)c1ccc(C(=O)Nc2cccc(NC(=O)COc3ccc4c(=O)ccoc4c3)c2)cc1
> 10 µM: all assays above
